Data as given in patent publication US20040106545A1, “Compounds and methods for modulating cell adhesion” (priority 1996, published 2004).
Where “and” joins values, the source holds several entries; their conditions need not be identical. Equal entries are not always repeated.

What was measured:
[1] = system: human skin; assay: Human skin permeability, Franz Cell apparatus
Experimental: Another cell adhesion assay involves evaluating the effect of a modulating agent on permeability of adherent epithelial and/or endothelial cell layers. For example, the effect on permeability of human skin may be evaluated. Such skin may be derived from a natural source or may be synthetic. Human abdominal skin for use in such assays may generally be obtained from humans at autopsy within 24 hours of death. Briefly, a cyclic peptide and a test marker (e.g., the fluorescent markers Oregon Green™ and Rhodamine Green™ Dextran) may be dissolved in a sterile buffer, and the ability of the marker to penetrate through the skin and into a receptor fluid may be measured using a Franz Cell apparatus (Franz, Curr. Prob. Dermatol. 7:58-68, 1978; Franz, J. Invest. Dermatol. 64:190-195, 1975). In general, a modulating agent that enhances the permeability of human skin results in a statistically significant increase in the amount of marker in the receptor compartment after 6-48 hours in the presence of 500 μg/mL modulating agent. This assay evaluates the effect of a modulating agent on E-cadherin mediated cell adhesion.
Abdominal skin from humans at autopsy within 24 hours of death was used in these assays. The effect of N—Ac-CHAVC-NH2 (SEQ ID NO:10) and N—Ac-CHGVC-NH2 (SEQ ID NO:11), used at a concentration of 500 μg/ml or 2.5 mg/ml, on the penetration of two fluorescent markers, Oregon Green 488 (charge −1, MW 386 daltons) and Rhodamine Green 3000 Dextran (no charge, MW 3000 daltons) through human skin was then evaluated utilizing a Franz Cell apparatus (Franz, Curr. Prob. Dermatol. 7:58-68, 1978; Franz, J. Invest. Dermatol. 64:190-195, 1975). The peptides and markers were dissolved in sterile phosphate buffer, pH 7.2, and phosphate buffer was used as the receptor fluid. 150 μl of solution containing 0.2 mg Oregon Green and 1.0 mg Rhodamine Green was used to evaluate 500 μg/ml peptide; 200 μl of solution containing 0.05 mg Oregon Green and 1.250 mg Rhodamine Green was used to evaluate 2.5 mg/ml peptide. The solution was placed on top of the epidermal side of the skin, and the penetration of the markers through the skin was assessed using a fluorescent spectrophotometric method (in a Perkin Elmer 650-105 Fluorescence Spectrophotometer, and comparing the reading to a standard curve) at 6, 12, 24, 36, and 48 hours after the start of the experiment. The fluorescent units were converted to a concentration unit of microgram/5 ml (volume of the receiver compartment) using a standard curve and regression analysis equations. The curve was linear for the concentrations tested for both markers (r^2=1 for OrG and 0.997 for RhG). For each peptide and marker combination, the experiment was performed in triplicate.

[2] = system: SKOV3 human ovarian cancer cells; assay: Induction of apoptosis in SKOV3 cancer cells, in situ cell death detection; assay type: cell-based; conditions: 0.5 or 0.25 mg/mL, 48 hours
Experimental: Direct assays of induction of apoptosis may be performed using any standard technique. For example, cadherin-expressing cells (e.g., SKOV3 human ovarian cancer cells) may be plated onto poly-L-lysine coated glass slides and cultured with 500 μg/mL of modulating agent for 24-48 hours. Cells may then be fixed and assayed for cell death using any of a variety of well known methods. For example, an in situ cell death detection kit may be purchased from Boehringer Mannheim (Laval, Quebec) and used according to the manufacturer's instructions.
SKOV3 human ovarian cancer cells cultured in the presence of either N—Ac-CHAVC-NH2 (SEQ ID NO:10) or a control peptide (N—Ac-CHGVC-NH2; SEQ ID NO:11) in MEM with 10% FBS were plated onto poly-L-lysine coated glass slides. The cells were cultured for 24 or 48 hours and fixed with 4% paraformaldehyde for 30 minutes at room temperature. The slides were then washed three times with PBS and assessed for cell death. Cells were treated with 0.5 or 0.25 mg/mL of N—Ac-CHAVC-NH2 (SEQ ID NO:10) or the control N—Ac-CHGVC-NH2 (SEQ ID NO:11), as indicated. Cell death was measured as described by Gavrieli et al, J. Cell. Biol. 119:493-501, 1992 and using the In situ cell death detection kit (Boehringer Mannheim; Laval, Quebec).

[3] = system: A1N4 human breast epithelial cells; assay: Disruption of breast epithelial cell adhesion, E-cadherin staining; assay type: cell-based; conditions: 500 μg/mL, 48 hours
Experimental: A1N4 human breast epithelial cells (kindly provided by Martha Stampfer, Lawrence Berkeley Laboratory, Berkeley, Calif.) were plated on glass coverslips and cultured in F12/DME containing 0.5% FCS and 10 ng/mL EGF for 24 hours. Fresh medium containing the cyclic peptides (final concentration 500 μg/mL media) N—Ac-CHAVC-NH2 (SEQ ID NO:10) or N—Ac-CHGVC-NH2 (SEQ ID NO:11) was then added. Following 24 hours of culture in the presence of the peptides, the medium was removed and fresh medium containing the peptides was added. The cells were fixed 24 hours later with cold methanol and stored in phosphate buffered saline (PBS).
Coverslips were blocked for 1 hour in 3% ovalbumin/PBS and incubated for a further 1 hour in the presence of 1 μg/mL mouse anti-E-cadherin antibody (Zymed, Gaithersburg, Md.). Primary and secondary antibodies were diluted in PBS containing 6% normal goat serum. Following incubation in the primary antibody, coverslips were washed 3 times for 5 minutes each in PBS and incubated for 1 hour with goat anti-mouse conjugated to fluorescein (Kiekegard and Perry, South San Francisco, Calif.) diluted 1:100. Following a further wash in PBS (3×5 minutes) coverslips were mounted in Vectashield (Vector Labs, Burlingame, Calif.) and viewed with a Zeiss infinity corrected microscope.

[4] = 500 μg/ml Peptide, t = 6 hours, Mean
[5] = 500 μg/ml Peptide, t = 6 hours, single replicates, listed as Sample#3
[6] = 500 μg/ml Peptide, t = 12 hours, Mean
[7] = 500 μg/ml Peptide, t = 12 hours, single replicates, listed as Sample#3
[8] = 500 μg/ml Peptide, t = 24 hours, Mean
[9] = 500 μg/ml Peptide, t = 24 hours, single replicates, listed as Sample#3
[10] = 500 μg/ml Peptide, t = 36 hours, Mean
[11] = 500 μg/ml Peptide, t = 36 hours, single replicates, listed as Sample#3
[12] = 500 μg/ml Peptide, t = 48 hours, Mean
[13] = 500 μg/ml Peptide, t = 48 hours, single replicates, listed as Sample#3
[14] = 2.5 mg/ml Peptide, t = 6 hours, Mean
[15] = 2.5 mg/ml Peptide, t = 6 hours, single replicates, listed as Sample#3
[16] = 2.5 mg/ml Peptide, t = 12 hours, Mean
[17] = 2.5 mg/ml Peptide, t = 12 hours, single replicates, listed as Sample#3
[18] = 2.5 mg/ml Peptide, t = 24 hours, Mean
[19] = 2.5 mg/ml Peptide, t = 24 hours, single replicates, listed as Sample#3
[20] = 2.5 mg/ml Peptide, t = 36 hours, Mean
[21] = 2.5 mg/ml Peptide, t = 36 hours, single replicates, listed as Sample#3
[22] = 2.5 mg/ml Peptide, t = 48 hours, Mean
[23] = 2.5 mg/ml Peptide, t = 48 hours, single replicates, listed as Sample#3

`CC(=O)N[C@H]1CSSC[C@@H](C(N)=O)NC(=O)[C@H](C(C)C)NC(=O)CNC(=O)[C@H](Cc2c[nH]cn2)NC1=O` [N—Ac—CHGVC—NH2, reference compound] was tested, and the “Percutaneous absorption concentration for Dextran Rhodamine Green 3000” value [1, 4] was 0.23 mg/5ml, the “Percutaneous absorption concentration for Oregon Green 488” value [1, 4] was 0.055 mg/5ml and the “Percutaneous absorption concentration for Dextran Rhodamine Green 3000” value [1, 5] was 0.2 mg/5ml (2×) and 0.3 mg/5ml. The “Percutaneous absorption concentration for Oregon Green 488” value [1, 5] was 0.098 mg/5ml and 0.022 mg/5ml and 0.045 mg/5ml, the “Percutaneous absorption concentration for Dextran Rhodamine Green 3000” value [1, 6] was 0.67 mg/5ml and the “Percutaneous absorption concentration for Oregon Green 488” value [1, 6] was 0.132 mg/5ml. For the same molecule, the “Percutaneous absorption concentration for Dextran Rhodamine Green 3000” value [1, 7] was 0.6 mg/5ml and 1.0 mg/5ml and 0.4 mg/5ml, the “Percutaneous absorption concentration for Oregon Green 488” value [1, 7] was 0.200 mg/5ml and 0.107 mg/5ml and 0.088 mg/5ml and the “Percutaneous absorption concentration for Dextran Rhodamine Green 3000” value [1, 8] was 1.07 mg/5ml. The “Percutaneous absorption concentration for Oregon Green 488” value [1, 8] was 0.698 mg/5ml, the “Percutaneous absorption concentration for Dextran Rhodamine Green 3000” value [1, 9] was 1.0 mg/5ml and 1.4 mg/5ml and 0.8 mg/5ml and the “Percutaneous absorption concentration for Oregon Green 488” value [1, 9] was 0.709 mg/5ml and 0.864 mg/5ml and 0.522 mg/5ml. For the same molecule, the “Percutaneous absorption concentration for Dextran Rhodamine Green 3000” value [1, 10] was 1.2 mg/5ml, the “Percutaneous absorption concentration for Oregon Green 488” value [1, 10] was 0.802 mg/5ml and the “Percutaneous absorption concentration for Dextran Rhodamine Green 3000” value [1, 11] was 1.0 mg/5ml (2×) and 1.6 mg/5ml. For the same molecule, the “Percutaneous absorption concentration for Oregon Green 488” value [1, 11] was 0.769 mg/5ml and 0.923 mg/5ml and 0.714 mg/5ml, the “Percutaneous absorption concentration for Dextran Rhodamine Green 3000” value [1, 12] was 2.99 mg/5ml and the “Percutaneous absorption concentration for Oregon Green 488” value [1, 12] was 0.902 mg/5ml. For the same molecule, the “Percutaneous absorption concentration for Dextran Rhodamine Green 3000” value [1, 13] was 1.8 mg/5ml (2×) and 5.370 mg/5ml, the “Percutaneous absorption concentration for Oregon Green 488” value [1, 13] was 0.923 mg/5ml and 1.021 mg/5ml and 0.764 mg/5ml and the “Percutaneous absorption concentration for Dextran Rhodamine Green 3000” value [1, 14] was 1.93 mg/5ml. The “Percutaneous absorption concentration for Oregon Green 488” value [1, 14] was 0.04 mg/5ml, the “Percutaneous absorption concentration for Dextran Rhodamine Green 3000” value [1, 15] was 1.8 mg/5ml and 0.2 mg/5ml and 3.8 mg/5ml and the “Percutaneous absorption concentration for Oregon Green 488” value [1, 15] was 0.04 mg/5ml and 0.01 mg/5ml and 0.06 mg/5ml. For the same molecule, the “Percutaneous absorption concentration for Dextran Rhodamine Green 3000” value [1, 16] was 8.97 mg/5ml, the “Percutaneous absorption concentration for Oregon Green 488” value [1, 16] was 0.07 mg/5ml and the “Percutaneous absorption concentration for Dextran Rhodamine Green 3000” value [1, 17] was 17.02 mg/5ml and 2.0 mg/5ml and 7.89 mg/5ml. The “Percutaneous absorption concentration for Oregon Green 488” value [1, 17] was 0.11 mg/5ml and 0.04 mg/5ml and 0.08 mg/5ml, the “Percutaneous absorption concentration for Dextran Rhodamine Green 3000” value [1, 18] was 15.64 mg/5ml and the “Percutaneous absorption concentration for Oregon Green 488” value [1, 18] was 0.16 mg/5ml. For the same molecule, the “Percutaneous absorption concentration for Dextran Rhodamine Green 3000” value [1, 19] was 27.47 mg/5ml and 5.56 mg/5ml and 13.9 mg/5ml, the “Percutaneous absorption concentration for Oregon Green 488” value [1, 19] was 0.12 mg/5ml and 0.11 mg/5ml and 0.26 mg/5ml and the “Percutaneous absorption concentration for Dextran Rhodamine Green 3000” value [1, 20] was 19.73 mg/5ml. For the same molecule, the “Percutaneous absorption concentration for Oregon Green 488” value [1, 20] was 0.25 mg/5ml, the “Percutaneous absorption concentration for Dextran Rhodamine Green 3000” value [1, 21] was 33.06 mg/5ml and 5.79 mg/5ml and 20.35 mg/5ml and the “Percutaneous absorption concentration for Oregon Green 488” value [1, 21] was 0.23 mg/5ml and 0.22 mg/5ml and 0.29 mg/5ml. For the same molecule, the “Percutaneous absorption concentration for Dextran Rhodamine Green 3000” value [1, 22] was 25.53 mg/5ml, the “Percutaneous absorption concentration for Oregon Green 488” value [1, 22] was 0.36 mg/5ml and the “Percutaneous absorption concentration for Dextran Rhodamine Green 3000” value [1, 23] was 40.86 mg/5ml and 8.25 mg/5ml and 27.48 mg/5ml. For the same molecule, the “Percutaneous absorption concentration for Oregon Green 488” value [1, 23] was 0.36 mg/5ml and 0.26 mg/5ml and 0.46 mg/5ml, the “cell death of SKOV3 cells” value [2] was “did not die” and the “E-cadherin staining and monolayer of A1N4 cells” value [3] was “displayed E-cadherin staining concentrated at points of cell-cell contact and formed a tightly adherent monolayer”.
